Values after ≈ are worked out from the molar mass of the structure shown. “Also recorded” adds a separate entry of the source.
What was measured:
Type in all cases: physicochemical
[1] = Salt screening (XRPD, chiral purity of hits)
Experimental: Based on the pKa of I-1 free form, 23 counter ions were selected as salt/cocrystal forming agents. Methanol, acetone and isopropyl acetate were used as screening solvents. 1.0 equivalent of selected counter ions/coformers was applied for salt screening. Slurry equilibration, slow evaporation and anti-solvent addition were used as crystallization methods. In total, about 70 screening experiments were conducted.
About 50 mg of I-1 Form A were added to a suitable amount of solvent and 1.0 equivalent of counter ions were added under stirring at 50° C. for 2 hours and then at 25° C. for at least 12 hours. MeOH, acetone and IPAc were used as screening solvents.
Obtained suspensions were taken out and centrifuged. Solids obtained were analyzed by XRPD and salt screening results were summarized in Table 5.1, Table 5.2, and Table 5.3.

[2] = Bulk stability (1 week); parameters: key to CL (color): A: No change of color; B: Slight discoloration; C: Medium discoloration; D: Strong discoloration; DC: complete decomposition; conditions: for CL (color) / Bulk (HPLC) chiral purity / Bulk (HPLC) purity / Bulk (XRPD): Solid state
Experimental: Bulk stability of I-1 Form A and the 2 salt candidates was investigated at 25° C./92% RH in an open container, at 40° C./75% RH in an open container and at 60° C. in a tight container over 1 week. […] All the 3 salts show no obvious racemization based on chiral purity results.
I-1 Form A and the 2 salts were placed at 25° C./92% RH in an open container, at 40° C./75% RH in an open container and at 60° C. in a closed container for I week. Samples after I week were characterized by XRPD and HPLC and inspected for color change.

[3] = Suspension stability at 25° C.; conditions: for physical form of residual solids (XRPD): 0.5% MC (400 cP)+2% Vitamin E TPGS; for Chiral purity / Purity / Solubility / pH / Chiral purity (solids) / Chiral purity, liquid / Chiral purity, solid: 25° C.
Experimental: Suspension stability: Suspension stability of I-1 Form A and the 2 salt candidates was investigated in pure water, 0.5% (w/w) Tween 80 aqueous solution and 0.5% (w/w) MC (400 cP)+2% (w/w) Vitamin E TPGS aqueous solution at 25° C. for 2 h and 24 h. Target concentration was 2 mg/mL.
To confirm whether racemization occurs for the 2 salts in 0.5% (w/w) MC (400 cP)+2% (w/w) Vitamin E TPGS aqueous solution, the suspension stability in this vehicle was repeated at target concentration of 10 mg/mL. […] The hygroscopicity of these salts were further investigated.
Accurate 10 mg of I-1 Form A, 12.83 mg of I-3 Form A, 11.58 mg of I-4 Form A was weighed into a 8 mL glass vial, respectively. 5 mL of suspension vehicle was added, respectively. The salt amount used is equivalent to 10 mg anhydrous free form. These suspensions were stirred at 25° C. with 400 rpm. These suspensions were taken out at 2 hours and 24 hours, then centrifuged at 14,000 rpm for 5 min. The supernatants were analyzed by HPLC and pH meter. Solids obtained (wet cakes) were characterized by XRPD and HPLC to determine the chiral purity.
Accurate […] of I-3 Form A, 46.3 mg of I-4 Form A was weighed into a 8 mL glass vial, respectively. 4 mL of solubility medium was added, respectively. The salt amount used is equivalent to 40 mg anhydrous free form. 4 mL of the aqueous vehicle (0.5% (w/w) MC (400 cP) and 2% (w/w) Vitamin E TPGS in water) was added, respectively. These suspensions were stirred at 25° C. with 400 rpm. These suspensions were taken out at 2 hours and 24 hours, then centrifuged at 14,000 rpm for 5 min. The supernatants were analyzed by HPLC for the solubility and chiral purity and analyzed by pH meter. Solids obtained (wet cakes) were characterized by XRPD and HPLC for chiral purity.

[4] = crystalline hits of salt screening, listed as I-3 Form A
[5] = Salt candidates risk matrix (summary)
[6] = 25° C./92% RH, open container, 1 week, listed as I-3 Form A
[7] = 40° C./75% RH, open container, 1 week, listed as I-3 Form A
[8] = 60° C., tight container, 1 week
[9] = 60° C., tight container, 1 week, listed as I-3 Form A
[10] = before storage, listed as I-3 Form A
[11] = 2 mg/mL, 0.5%(w/w) MC(400 cP) and 2%(w/w) Vitamin E TPGS in water, 2 h, listed as I-3 Form A
[12] = 2 mg/mL, 0.5%(w/w) MC(400 cP) and 2%(w/w) Vitamin E TPGS in water, 24 h, listed as I-3 Form A
[13] = 2 mg/mL, 0.5%(w/w) Tween 80 in water, 2 h, listed as I-3 Form A
[14] = 2 mg/mL, 0.5%(w/w) Tween 80 in water, 24 h, listed as I-3 Form A
[15] = 2 mg/mL, Pure water, 2 h, listed as I-3 Form A
[16] = 2 mg/mL, Pure water, 24 h, listed as I-3 Form A
[17] = 10 mg/mL, 0.5(w/w) MC(400 cP) and 2%(w/w) Vitamin E TPGS in water, 2 h, listed as I-3 Form A
[18] = 10 mg/mL, 0.5(w/w) MC(400 cP) and 2%(w/w) Vitamin E TPGS in water, 24 h, listed as I-3 Form A

With `N#Cc1c(-c2cc(NC(=O)c3cc(F)cc(C(F)(F)F)c3)c3c(c2)C(=O)N[C@H]3c2cc(F)ccc2Cl)ccc2ncnn12` [Compound I-3] the “Salt screening result (slurry crystallization)” value (shortened to “Salt screening result”) ([1]; 1.0 equiv. p-toluenesulfonic acid, Acetone) was “+ (I-3 Form A) (Salt hits)”, the “Salt screening result” value ([1]; 1.0 equiv. p-toluenesulfonic acid, Isopropyl acetate) was “+ (I-3 Form A) (Salt hits)” and the “Salt screening result” value ([1]; 1.0 equiv. p-toluenesulfonic acid, MeOH) was “+ (I-3 Form A) (Salt hits)”. For the same molecule, the “chiral stability in salt screening and scale up solvents” value ([1]; MeOH, acetone and IPAc, acetone) was “good chiral stability”, the “Chiral purity (by HPLC)” value [1, 4] was 99.8% and the “Crystallinity (By XRPD)” value [1, 4] was “High”. For the same molecule, the “Chiral purity of salt screening solid” value ([1]; slurry, 1.0 equiv. p-toluenesulfonic acid, Acetone) was “Chiral purity: 99.8%”, the “bulk stability (chemical and physical)” value ([2]; 25° C./92% RH open, 40° C./75% RH open, 60° C. tight container, 1 week, listed as I-3 Form A) was “chemically and physically stable; also recorded: chemically stable and shows no XRPD change; also recorded: good chemical and physical bulk stability” and the Chemical stability [2, 5] was “Stable”. The Physical stability [2, 5] was “Stable”, the “CL (color)” value ([2]; 25° C./92% RH, open container, 1 week) was “A” and the “Bulk (HPLC) chiral purity” value [2, 6] was 98.3%. The “Bulk (HPLC) purity” value [2, 6] was 99.4%/, the “Bulk (XRPD)” value [2, 6] was “No form change*” and the “CL (color)” value ([2]; 40° C./75% RH, open container, 1 week) was “A”. The “Bulk (HPLC) chiral purity” value [2, 7] was 98.5%, the “Bulk (HPLC) purity” value [2, 7] was 99.3%/ and the “Bulk (XRPD)” value [2, 7] was “No form change*”. For the same molecule, the “Bulk (XRPD)” value [2, 8] was “No form change”, the “CL (color)” value [2, 8] was “A” and the “Bulk (HPLC) chiral purity” value [2, 9] was 98.3%. The “Bulk (HPLC) purity” value [2, 9] was 99.5%/, the “Chiral purity (initial)” value [2, 10] was 98.6% and the “Initial purity by HPLC” value [2, 10] was 99.5%. For the same molecule, the “physical form of residual solids (XRPD)” value ([3]; 10 mg/mL, 2 h sample, listed as I-3 Form A) was “converted to a hydrate (I-3 Form B)”, the “physical form of residual solids (XRPD)” value ([3]; 10 mg/mL, 2 h sample, listed as tosylate salt) was “a form change” and the “physical form of residual solids (XRPD)” value ([3]; 10 mg/mL, 24 h sample) was “remained unchanged”. For the same molecule, the “Chiral purity” value [3, 11] was 86.4%, the Purity [3, 11] was 99.3% and the “Solubility” value [3, 11] was 1220.9 µg/mL (≈ 2010 µM). The pH [3, 11] was 2.76, the “Chiral purity” value [3, 12] was 98.3% and the Purity [3, 12] was 99.3%. For the same molecule, the “Solubility” value [3, 12] was 1990.7 µg/mL (≈ 3270 µM), the pH [3, 12] was 2.62 and the “Chiral purity” value [3, 13] was 95.8%. For the same molecule, the “Chiral purity (solids)” value [3, 13] was 98.0%, the Purity [3, 13] was 99.4% and the “Solubility” value [3, 13] was 244.6 µg/mL (≈ 402 µM). For the same molecule, the pH [3, 13] was 3.11, the “Chiral purity” value [3, 14] was 98.5% and the “Chiral purity (solids)” value [3, 14] was 94.2%. The Purity [3, 14] was 99.4%, the “Solubility” value [3, 14] was 17.9 µg/mL (≈ 29.4 µM) and the pH [3, 14] was 2.63. For the same molecule, the “Chiral purity (solids)” value [3, 15] was 98.3%, the Purity [3, 15] was 99.6% and the pH [3, 15] was 5.59. For the same molecule, the “Chiral purity (solids)” value [3, 16] was 98.3%, the Purity [3, 16] was 99.5% and the pH [3, 16] was 2.85. The “Chiral purity, liquid” value [3, 17] was 99.4%;, the “Chiral purity, solid” value [3, 17] was 97.9% and the “Solubility” value [3, 17] was 3433.2 µg/mL (≈ 5640 µM). The pH [3, 17] was 2.30, the “Chiral purity, liquid” value [3, 18] was 99.4%; and the “Chiral purity, solid” value [3, 18] was 98.3%. The Purity [3, 18] was 99.7%, the “Solubility” value [3, 18] was 3083.9 µg/mL (≈ 5060 µM) and the pH [3, 18] was 2.17. The Initial chiral purity ([3]; before suspension, listed as I-3 Form A) was “Initial chiral purity: 98.6%”.
